# In US20210038587A1, “METHODS AND COMPOSITIONS FOR TREATING NON-ERK MAPK PATHWAY INHIBITOR-RESISTANT CANCERS” (BIOMED VALLEY DISCOVERIES, INC., priority 2013, published 2021):
# Assays:
# [1] = molecular target: P38γ (Homo sapiens, UniProt P53778); assay: Kinase counter-screen, Ki; type: biochemical; details: apparent Ki
# From the text: The ATP concentrations were approximately equal to the Km in all assays.
# [2] = tested on: RKO Parental; assay: Single agent proliferation assay (CellTiter-Glo, 96 h); type: cell-based
# Protocol: (§1) For assessment of drug sensitivity in cell-line models of acquired resistance, drug sensitivity of dose-escalated A375 cells and isogenic RKO cells was assessed in 96-hour proliferation assays. […] For the A375 assays Alamar blue (ThermoFisher) 10% (v/v) was added and incubated for 4 h, and fluorescent product was then detected using a BMG FLUOstar.
# (§2) Compounds were prepared from DMSO stocks to give the desired final concentrations. The final DMSO concentration was constant at 0.1%. […] CellTiter-Glo® reagent (Promega, Madison, Wis.) was added according to manufacturer's instructions and luminescence detected using the BMG FLUOstar plate reader (BMG Labtech, Ortenberg, Germany).
# [3] = tested on: RKO MEK1 (Q56P/+) Clone 1; assay: as above; type: cell-based; details: RKO MEK1 Q56P/+ Cl.1
# Protocol: as §1
# (§3) RKO MEK1 Q56P Isogenic cells were produced by Horizon Discovery (Cambridge, UK; #HD 106-019) using a recombinant AAV-mediated gene targeting strategy. Briefly, rAAV virus was generated following transfection of the appropriate targeting vector and helper vectors in HEK293T cells, purified using an AAV purification kit (Virapur, San Diego, USA) and titrated using qPCR. Parental homozygous RKO cells (homozygous wild type for MEK1) were then infected with rAAV virus and clones that had integrated the selection cassette were identified by G418 selection and expanded. Correctly targeted clones that were heterozygous for knock-in of the MEK1 Q56P point mutation into a single allele were identified by PCR and sequencing.
# as §2
# [4] = tested on: RKO MEK1 (Q56P/+) Clone 2; assay: as above; type: cell-based; details: RKO MEK1 Q56P/+ Cl.2
# Protocol: as §1, §3, §2
# [5] = tested on: Colo205; assay: Reverse Phase Protein Analysis (RPPA); type: cell-based, human; details: % change from DMSO (matched cell line)
# Protocol: (§5) Control wells were treated with DMSO at 0.1% (v/v) for 6 hours prior to cell lysate generation. Samples were then analyzed using reverse-phase protein microarray technology (Theranostics Health).
# (§6) Cell lines with common alterations in BRAF and RAS were assayed: BRAF^V600E mutant lines A375, Colo205, and HT29; KRAS^G12C-mutant cell line MIAPACa-2; KRAS^G13D-mutant cell line HCT116; and AN3Ca with atypical HRAS^F82L mutation.
# [6] = tested on: MIAPaCa-2; assay: Reverse Phase Protein Analysis (RPPA); type: cell-based; details: MIAPaca2; % change from DMSO (matched cell line)
# Protocol: as §5, §6
# [7] = tested on: A375 xenografts; assay: Antitumor activity in A375 xenografts, monotherapy; type: in vivo, mice; details: 14 days
# Protocol: (§4) For measurement of antitumor activity in A375 xenografts, xenografts were initiated with A375 cells maintained by serial subcutaneous transplantation in female athymic nude mice. Each test mouse received an A375 tumor fragment (1 mm^3) implanted subcutaneously in the right flank. Once tumors reached target size (80-120 mm^3), animals were randomized into treatment and control groups, and drug treatment was initiated.
# Oral temozolomide was administered as a positive reference compound at 75 or 175 mg/kg once daily (QD) for a total of five treatments (QD×5).
# [8] = tested on: A375 xenografts; assay: A375 xenografts, BVD-523 in combination with dabrafenib; type: in vivo, mice; details: 100 mg/kg BID
# From the text: as §4
# Combination dosing was stopped on Day 20 to monitor for tumor regrowth. Animals were monitored individually and euthanized when each tumor reached an endpoint volume of 2000 mm^3, or the final day (Day 45), whichever came first, and median time to endpoint (TTE) calculated. The combination was also evaluated in an upstaged A375 model where larger tumors in the range 228-1008 mm^3 were evaluated. Here, mice were randomized into 1 group (Group 1) of 14 and 4 groups (Groups 2-5) of 20. […] Tumors were measured twice weekly. Combination dosing was stopped on Day 42 to monitor for tumor regrowth through study end (Day 60). Treatment outcome was determined from % TGD, defined as the percent increase in median TTE for treated versus control mice, with differences between groups analyzed via log rank survival analysis. […] Mice were also monitored for CR and PR responses. Animals with a CR at the end of the study were additionally classified as TFS.
# [9] = tested on: PMA stimulated ERK activity (RSK-1 phosphorylation); assay: Phase I study: pharmacodynamic target inhibition (pRSK in patient whole blood); type: in vivo; details: Homo sapiens, 360 h, prior to Day 15 dosing
# P38γ, sequence (P53778 whole entry): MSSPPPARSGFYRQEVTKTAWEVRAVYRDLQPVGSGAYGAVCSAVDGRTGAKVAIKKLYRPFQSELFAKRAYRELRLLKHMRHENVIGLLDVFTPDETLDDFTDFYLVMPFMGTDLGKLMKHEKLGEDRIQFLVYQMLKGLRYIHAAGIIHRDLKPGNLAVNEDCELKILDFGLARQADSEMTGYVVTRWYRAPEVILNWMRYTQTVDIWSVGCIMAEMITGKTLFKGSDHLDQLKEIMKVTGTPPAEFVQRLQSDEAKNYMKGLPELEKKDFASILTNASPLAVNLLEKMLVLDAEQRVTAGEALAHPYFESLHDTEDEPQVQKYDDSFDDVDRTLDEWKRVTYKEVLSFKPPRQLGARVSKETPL
structure (smiles),measurement,setting,value
CC(C)Nc1cc(-c2c[nH]c(C(=O)N[C@H](CO)c3cccc(Cl)c3)c2)c(Cl)cn1 [BVD-523],Ki,[1],0.45 µM
same,IC50,[2],0.2 µM
same,IC50,[3],0.17 µM
same,IC50,[4],0.18 µM
same,Avg (4ebp1 T70),[5],−36.35%
same,Avg (Akt S473),[5],−5.78%
same,Avg (Akt),[5],−3.85%
same,Avg (Bad S136),[5],5.05%
same,Avg (Bad S155),[5],−18.18%
same,Avg (Bak),[5],3.79%
same,Avg (Bax),[5],0.28%
same,Avg (Bcl 2),[5],−0.13%
same,Avg (Bcl2 S70),[5],−10.2%
same,Avg (Bcl 2 T56),[5],−11.84%
same,Avg (Bim),[5],41.73%
same,Avg (CREB S133),[5],−2.67%
same,Avg (Caspase 3 CL D175),[5],−3.18%
same,Avg (Caspase 7 Cl D198),[5],6.76%
same,Avg (Chk1),[5],−2.86%
same,Avg (Chk1 S345),[5],−4.63%
same,Avg (Cyclin D1),[5],−23.65%
same,Avg (ERK 1 2),[5],−18.83%
same,Avg (ERK 1 2 T202 Y204),[5],14.39%
same,Avg (MAK1 S360),[5],14.69%
same,Avg (Mcl1),[5],−2.7%
same,Avg (Raptor S792),[5],0.41%
same,Avg (Raptor),[5],−7.14%
same,Avg (Rictor),[5],−5.21%
same,Avg (Stat1),[5],0.53%
same,Avg (Stat3),[5],−2.58%
same,Avg (bad S112),[5],−31.51%
same,Avg (c Fos),[5],−12.25%
same,Avg (mTOR S2448),[5],−23.51%
same,Avg (mTOR S2481),[5],−1.33%
same,Avg (mTOR),[5],12.77%
same,Avg (p70 S6 Kinase),[5],0.14%
same,Avg (p90 RSK S380),[5],−50.84%
same,Avg(S6 Ribo Prot S235 236),[5],−96.15%
same,Avg(S6 Ribo Prot S240 244),[5],−97.33%
same,Avg(Tuberin TSC2 Y1571),[5],−3.48%
same,Avg(p70 S6 Kinase S371 S394),[5],−18.11%
same,Avg(p70 S6 Kinase T389 T412),[5],−36.4%
same,Avg (4ebp1 T70),[6],−9.42%
same,Avg (Akt S473),[6],9.9%
same,Avg (Akt),[6],23.63%
same,Avg (Bad S136),[6],−4.12%
same,Avg (Bad S155),[6],−5.65%
same,Avg (Bak),[6],−15.15%
same,Avg (Bax),[6],23.44%
same,Avg (Bcl 2),[6],5.86%
same,Avg (Bcl2 S70),[6],0.89%
same,Avg (Bcl 2 T56),[6],−1.78%
same,Avg (Bim),[6],−12.51%
same,Avg (CREB S133),[6],−19.26%
same,Avg (Caspase 3 CL D175),[6],22.35%
same,Avg (Caspase 7 Cl D198),[6],−6.44%
same,Avg (Chk1),[6],−3.51%
same,Avg (Chk1 S345),[6],1.2%
same,Avg (Cyclin D1),[6],−37.9%
same,Avg (ERK 1 2),[6],−40.33%
same,Avg (ERK 1 2 T202 Y204),[6],209.14%
same,Avg (MAK1 S360),[6],−10.72%
same,Avg (Mcl1),[6],−7.27%
same,Avg (Raptor S792),[6],5.95%
same,Avg (Raptor),[6],21.15%
same,Avg (Stat1),[6],8.62%
same,Avg (Stat3),[6],−1.23%
same,Avg (bad S112),[6],−30.29%
same,Avg (c Fos),[6],−18.44%
same,Avg (c Myc),[6],−8.77%
same,Avg (mTOR S2448),[6],−11.73%
same,Avg (mTOR S2481),[6],−0.24%
same,Avg (mTOR),[6],−3.27%
same,Avg (p70 S6 Kinase),[6],−3.59%
same,Avg (p90 RSK S380),[6],−35%
same,Avg(S6 Ribo Prot S235 236),[6],−79.46%
same,Avg(S6 Ribo Prot S240 244),[6],−88.03%
same,Avg(Tuberin TSC2 Y1571),[6],1.7%
same,Avg(p70 S6 Kinase S371 S394),[6],−28.27%
same,Avg(p70 S6 Kinase T389 T412),[6],−39.23%
same,tumor growth inhibition (TGI),[7]; 50 mg/kg BID p.o.,71%
same,tumor growth inhibition (TGI),[7]; 100 mg/kg BID p.o.,99%
same,durable complete responses,[8],2
same,inhibition at 10 mg,[9]; 10 mg BID,0%
same,inhibition at 900 mg,[9]; 900 mg BID,93 ± 8%
